According to ChEMBL document CHEMBL2434896, “Carbonic anhydrase inhibitors. Synthesis of heterocyclic 4-substituted pyridine-3-sulfonamide derivatives and their inhibition of the human cytosolic isozymes I and II and transmembrane tumor-associated isozymes IX and XII” (Eur J Med Chem, 2013):
Activity calls are given as the source filed them. No cut-off for these calls is given here.

Key:
SK-MEL-28 = test: Growth inhibition of human SK-MEL-28 cells at 10 uM after 48 hrs by sulforhodamine B assay; type: functional, cell-based
UO-31 = test: Growth inhibition of human UO31 cells at 10 uM after 48 hrs by sulforhodamine B assay; type: functional; conditions: UO-31, 48 h, read-out: GI
DU-145 = test: Growth inhibition of human DU145 cells at 10 uM after 48 hrs by sulforhodamine B assay; type: functional
MCF7 = test: Growth inhibition of human MCF7 cells at 10 uM after 48 hrs by sulforhodamine B assay; type: functional
786-0 = test: Growth inhibition of human 786-0 cells at 10 uM after 48 hrs by sulforhodamine B assay; type: functional; conditions: 786-0, 48 h, read-out: GI
SK-OV-3 = test: Growth inhibition of human SKOV3 cells at 10 uM after 48 hrs by sulforhodamine B assay; type: functional
SK-MEL-5 = test: Growth inhibition of human SK-MEL-5 cells at 10 uM after 48 hrs by sulforhodamine B assay; type: functional
SN12C = test: Growth inhibition of human SN12C cells at 10 uM after 48 hrs by sulforhodamine B assay; type: functional
A549 = test: Growth inhibition of human A549/ATCC cells at 10 uM after 48 hrs by sulforhodamine B assay; type: functional
NCI-H23 = test: Growth inhibition of human NCI-H23 cells at 10 uM after 48 hrs by sulforhodamine B assay; type: functional; conditions: NCI-H23, 48 h, read-out: GI
OVCAR-8 = test: Growth inhibition of human OVCAR8 cells at 10 uM after 48 hrs by sulforhodamine B assay; type: functional
UACC-62 = test: Growth inhibition of human UACC62 cells at 10 uM after 48 hrs by sulforhodamine B assay; type: functional
HOP-62 = test: Growth inhibition of human HOP62 cells at 10 uM after 48 hrs by sulforhodamine B assay; type: functional
NCI/ADR-RES = test: Growth inhibition of human NCI-ADR-RES cells at 10 uM after 48 hrs by sulforhodamine B assay; type: functional
SF-268 = test: Growth inhibition of human SF268 cells at 10 uM after 48 hrs by sulforhodamine B assay; type: functional; conditions: SF-268, 48 h, read-out: GI
Hs-578T = test: Growth inhibition of human Hs 578T cells at 10 uM after 48 hrs by sulforhodamine B assay; type: functional
NCI-H460 = test: Growth inhibition of human NCI-H460 cells at 10 uM after 48 hrs by sulforhodamine B assay; type: functional
OVCAR-5 = test: Growth inhibition of human OVCAR5 cells at 10 uM after 48 hrs by sulforhodamine B assay; type: functional
SF-295 = test: Growth inhibition of human SF295 cells at 10 uM after 48 hrs by sulforhodamine B assay; type: functional
U-251 = test: Growth inhibition of human U251 cells at 10 uM after 48 hrs by sulforhodamine B assay; type: functional
OVCAR-4 = test: Growth inhibition of human OVCAR4 cells at 10 uM after 48 hrs by sulforhodamine B assay; type: functional
NCI-H226 = test: Growth inhibition of human NCI-H226 cells at 10 uM after 48 hrs by sulforhodamine B assay; type: functional; conditions: NCI-H226, 48 h, read-out: GI
CAKI-1 = test: Growth inhibition of human CAKI-1 cells at 10 uM after 48 hrs by sulforhodamine B assay; type: functional
A498 = test: Growth inhibition of human A498 cells at 10 uM after 48 hrs by sulforhodamine B assay; type: functional; conditions: A498, 48 h, read-out: GI
SNB-19 = test: Growth inhibition of human SNB19 cells at 10 uM after 48 hrs by sulforhodamine B assay; type: functional
T47D = test: Growth inhibition of human T47D cells at 10 uM after 48 hrs by sulforhodamine B assay; type: functional
EKVX = test: Growth inhibition of human EKVX cells at 10 uM after 48 hrs by sulforhodamine B assay; type: functional
HCT-15 = test: Growth inhibition of human HCT15 cells at 10 uM after 48 hrs by sulforhodamine B assay; type: functional
BT-549 = test: Growth inhibition of human BT549 cells at 10 uM after 48 hrs by sulforhodamine B assay; type: functional; conditions: BT-549, 48 h, read-out: GI
MOLT-4 = test: Growth inhibition of human MOLT4 cells at 10 uM after 48 hrs by sulforhodamine B assay; type: functional; conditions: MOLT-4, 48 h, read-out: GI
HCT-116 = test: Growth inhibition of human HCT116 cells at 10 uM after 48 hrs by sulforhodamine B assay; type: functional; conditions: HCT-116, 48 h, read-out: GI
COLO 205 = test: Growth inhibition of human COLO205 cells at 10 uM after 48 hrs by sulforhodamine B assay; type: functional
UACC-257 = test: Growth inhibition of human UACC257 cells at 10 uM after 48 hrs by sulforhodamine B assay; type: functional
SW-620 = test: Growth inhibition of human SW620 cells at 10 uM after 48 hrs by sulforhodamine B assay; type: functional
SK-MEL-2 = test: Growth inhibition of human SK-MEL-2 cells at 10 uM after 48 hrs by sulforhodamine B assay; type: functional
HL-60(TB) = test: Growth inhibition of human HL-60(TB) cells at 10 uM after 48 hrs by sulforhodamine B assay; type: functional; conditions: HL-60, 48 h, read-out: GI
Carbonic anhydrase 9 = Carbonic anhydrase 9 (Homo sapiens, UniProt Q16790); test: Inhibition of human carbonic anhydrase 9 after 15 mins by stopped flow CO2 hydration assay
SR = test: Growth inhibition of human SR cells at 10 uM after 48 hrs by sulforhodamine B assay; type: functional; conditions: read-out: GI
HCC 2998 = test: Growth inhibition of human HCC2998 cells at 10 uM after 48 hrs by sulforhodamine B assay; type: functional
TK-10 = test: Growth inhibition of human TK10 cells at 10 uM after 48 hrs by sulforhodamine B assay; type: functional
MDA-MB-468 = test: Growth inhibition of human MDA-MB-468 cells at 10 uM after 48 hrs by sulforhodamine B assay; type: functional
NCI-H522 = test: Growth inhibition of human NCI-H522 cells at 10 uM after 48 hrs by sulforhodamine B assay; type: functional
HT-29 = test: Growth inhibition of human HT-29 cells at 10 uM after 48 hrs by sulforhodamine B assay; type: functional
SF-539 = test: Growth inhibition of human SF539 cells at 10 uM after 48 hrs by sulforhodamine B assay; type: functional; conditions: SF-539, 48 h, read-out: GI
M14 = test: Growth inhibition of human M14 cells at 10 uM after 48 hrs by sulforhodamine B assay; type: functional; conditions: M14, 48 h, read-out: GI
IGROV-1 = test: Growth inhibition of human IGROV1 cells at 10 uM after 48 hrs by sulforhodamine B assay; type: functional
OVCAR-3 = test: Growth inhibition of human OVCAR3 cells at 10 uM after 48 hrs by sulforhodamine B assay; type: functional
NCI-H322M = test: Growth inhibition of human NCI-H322M cells at 10 uM after 48 hrs by sulforhodamine B assay; type: functional
RXF 393 = test: Growth inhibition of human RXF393 cells at 10 uM after 48 hrs by sulforhodamine B assay; type: functional
Malme-3M = test: Growth inhibition of human MALME-3M cells at 10 uM after 48 hrs by sulforhodamine B assay; type: functional; conditions: read-out: GI
MDA-MB-435 = test: Growth inhibition of human MDA-MB-435 cells at 10 uM after 48 hrs by sulforhodamine B assay; type: functional
K562 = test: Growth inhibition of human K562 cells at 10 uM after 48 hrs by sulforhodamine B assay; type: functional; conditions: K562, 48 h, read-out: GI
MDA-MB-231 = test: Growth inhibition of human MDA-MB-231 cells at 10 uM after 48 hrs by sulforhodamine B assay; type: functional
KM12 = test: Growth inhibition of human KM12 cells at 10 uM after 48 hrs by sulforhodamine B assay; type: functional; conditions: KM12, 48 h, read-out: GI
ACHN = test: Growth inhibition of human ACHN cells at 10 uM after 48 hrs by sulforhodamine B assay; type: functional
LOX IMVI = test: Growth inhibition of human LOXIMVI cells at 10 uM after 48 hrs by sulforhodamine B assay; type: functional; conditions: read-out: GI
SNB-75 = test: Growth inhibition of human SNB75 cells at 10 uM after 48 hrs by sulforhodamine B assay; type: functional; conditions: SNB-75, 48 h, read-out: GI

In the case of NS(=O)(=O)c1cnccc1N1CCN(Cc2ccccc2)CC1, the “growth inhibition (GI)” value (SK-MEL-28) is reported as “inactive”, the inhibition of growth at 10 µM (UO-31) is reported as 14% and the “growth inhibition (GI)” value (DU-145) is reported as “inactive”. The “growth inhibition (GI)” value (MCF7) was “inactive”, the inhibition of growth at 10 µM (786-0) was 6% and the “growth inhibition (GI)” value (SK-OV-3) was “inactive”. The “growth inhibition (GI)” value (SK-MEL-5) was “inactive”, the “growth inhibition (GI)” value (SN12C) was “inactive” and the “growth inhibition (GI)” value (A549) was “inactive”. For the same compound, the inhibition of growth at 10 µM (NCI-H23) was 1%, the “growth inhibition (GI)” value (OVCAR-8) was “inactive” and the “growth inhibition (GI)” value (UACC-62) was “inactive”. For the same compound, the “growth inhibition (GI)” value (HOP-62) was “inactive”, the “growth inhibition (GI)” value (NCI/ADR-RES) was “inactive” and the inhibition of growth at 10 µM (SF-268) was 3%. For the same compound, the “growth inhibition (GI)” value (Hs-578T) was “inactive”, the “growth inhibition (GI)” value (NCI-H460) was “inactive” and the “growth inhibition (GI)” value (OVCAR-5) was “inactive”. The “growth inhibition (GI)” value (SF-295) was “inactive”, the “growth inhibition (GI)” value (U-251) was “inactive” and the “growth inhibition (GI)” value (OVCAR-4) was “inactive”. For the same compound, the inhibition of growth at 10 µM (NCI-H226) was 1%, the “growth inhibition (GI)” value (CAKI-1) was “inactive” and the inhibition of growth at 10 µM (A498) was 5%. For the same compound, the “growth inhibition (GI)” value (SNB-19) was “inactive”, the “growth inhibition (GI)” value (T47D) was “inactive” and the “growth inhibition (GI)” value (EKVX) was “inactive”. For the same compound, the “growth inhibition (GI)” value (HCT-15) was “inactive”, the inhibition of growth at 10 µM (BT-549) was 9% and the inhibition of growth at 10 µM (MOLT-4) was 5%. For the same compound, the inhibition of growth at 10 µM (HCT-116) was 6%, the “growth inhibition (GI)” value (COLO 205) was “inactive” and the “growth inhibition (GI)” value (UACC-257) was “inactive”. The “growth inhibition (GI)” value (SW-620) was “inactive”, the “growth inhibition (GI)” value (SK-MEL-2) was “inactive” and the inhibition of growth at 10 µM (HL-60(TB)) was 8%. For the same compound, the Ki (Carbonic anhydrase 9) was 45.1 nM, the inhibition of growth at 10 µM (SR) was 13% and the “growth inhibition (GI)” value (HCC 2998) was “inactive”. The “growth inhibition (GI)” value (TK-10) was “inactive”, the “growth inhibition (GI)” value (MDA-MB-468) was “inactive” and the “growth inhibition (GI)” value (NCI-H522) was “inactive”. The “growth inhibition (GI)” value (HT-29) was “inactive”, the inhibition of growth at 10 µM (SF-539) was 6% and the inhibition of growth at 10 µM (M14) was 2%. The “growth inhibition (GI)” value (IGROV-1) was “inactive”, the “growth inhibition (GI)” value (OVCAR-3) was “inactive” and the “growth inhibition (GI)” value (NCI-H322M) was “inactive”. For the same compound, the “growth inhibition (GI)” value (RXF 393) was “inactive”, the inhibition of growth at 10 µM (Malme-3M) was 1% and the “growth inhibition (GI)” value (MDA-MB-435) was “inactive”. For the same compound, the inhibition of growth at 10 µM (K562) was 3%, the “growth inhibition (GI)” value (MDA-MB-231) was “inactive” and the inhibition of growth at 10 µM (KM12) was 1%. The “growth inhibition (GI)” value (ACHN) was “inactive”, the inhibition of growth at 10 µM (LOX IMVI) was 4% and the inhibition of growth at 10 µM (SNB-75) was 7%.
